Where two headings read alike, the source gives them in different places. Where a SMILES comes first, the peptide text is derived from it. Bridges are numbered along the chain shown (N, C = ends). [ ]: non-standard residue; d: D form. The star is where a group is joined. Palmitoyl = CCCCCCCCCCCCCCCC(=O)*; Aib = CC(C)(N)C(=O)O
What was measured:
hGLP-1R = biological target: T1, hGLP-1R (Homo sapiens, UniProt P43220); assay: hGLP-1R-mediated cAMP induction assay in CHO cell line; format: cell-based;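 also: CHO cells expressing human GLP-1R, treated 30 min at 37 °C, intracellular cAMP measured by competitive fluorescent immunoassay and converted via a cAMP standard curve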
T1 construct: expressed in transfected cells; host or cells: CHO

hGIPR = biological target: T2, hGIPR (Homo sapiens, UniProt P48546); assay: hGIPR-mediated cAMP induction assay in CHO cell line; format: cell-based
T2 construct: expressed in transfected cells; host or cells: CHO
T2 sequence (P48546 22-466): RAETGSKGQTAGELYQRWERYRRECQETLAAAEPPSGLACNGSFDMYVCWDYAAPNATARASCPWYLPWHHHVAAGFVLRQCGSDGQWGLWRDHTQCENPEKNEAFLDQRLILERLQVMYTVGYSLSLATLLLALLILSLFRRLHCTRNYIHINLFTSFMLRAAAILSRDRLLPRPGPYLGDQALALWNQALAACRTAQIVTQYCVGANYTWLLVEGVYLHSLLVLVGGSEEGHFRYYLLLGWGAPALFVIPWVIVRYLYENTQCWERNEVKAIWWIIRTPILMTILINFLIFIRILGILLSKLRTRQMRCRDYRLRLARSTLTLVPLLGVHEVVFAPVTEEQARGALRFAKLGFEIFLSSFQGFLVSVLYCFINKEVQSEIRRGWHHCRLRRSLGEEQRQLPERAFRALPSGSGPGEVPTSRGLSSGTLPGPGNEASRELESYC

T1 sequence (P43220 24-463): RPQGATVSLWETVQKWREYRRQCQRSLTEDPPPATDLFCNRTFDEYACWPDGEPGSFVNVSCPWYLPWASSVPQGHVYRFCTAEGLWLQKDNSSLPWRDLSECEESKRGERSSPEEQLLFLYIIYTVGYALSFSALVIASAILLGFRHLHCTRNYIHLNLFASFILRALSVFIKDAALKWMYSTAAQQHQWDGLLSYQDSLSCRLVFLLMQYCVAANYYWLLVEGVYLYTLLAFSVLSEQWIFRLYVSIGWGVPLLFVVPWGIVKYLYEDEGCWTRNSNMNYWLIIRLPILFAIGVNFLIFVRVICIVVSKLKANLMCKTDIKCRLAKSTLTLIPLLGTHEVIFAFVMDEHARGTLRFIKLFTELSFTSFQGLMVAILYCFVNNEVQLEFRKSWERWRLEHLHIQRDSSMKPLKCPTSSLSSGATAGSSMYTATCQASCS

Row | EC50 (hGLP-1R; Table 1, CHO/hGLP-1R cells, read-out: GLP-1R EC50) [nM] | GLP-1R Relative Potency (hGLP-1R; Table 1, against native GLP-1) [%] | EC50 (hGIPR; Table 1, CHO/hGIPR cells, read-out: GIPR EC50) [nM] | GIPR Relative Potency (hGIPR; Table 1, against native GIP) [%] | Compound | EC50 (hGLP-1R; Table 3, CHO hGLP1R cells) [nM] | GLP-1 Receptor Relative Potency (hGLP-1R; Table 3, against native GLP-1) | EC50 (hGIPR; Table 3, CHO hGIPR cells) [nM] | GIP Receptor Relative Potency (hGIPR; Table 3, against native GIP)
1 |  |  |  |  | CCCCCCCCCCCCCCCC(=O)NCCCC[C@H](NC(=O)[C@H](CO)NC(=O)[C@@H]1CCCN1C(=O)[C@@H]1CCCN1C(=O)[C@@H]1CCCN1C(=O)[C@H](C)NC(=O)CNC(=O)[C@H](CO)NC(=O)[C@H](CO)NC(=O)[C@@H]1CCCN1C(=O)CNC(=O)CNC(=O)[C@H](CCCCN)NC(=O)[C@@H](NC(=O)[C@H](CC(C)C)NC(=O)[C@H](Cc1c[nH]c2ccccc12)NC(=O)[C@H](C)NC(=O)[C@@H](NC(=O)[C@H](Cc1ccccc1)NC(=O)[C@H](CCC(=O)O)NC(=O)[C@H](CCCNC(=N)N)NC(=O)[C@@H](NC(=O)[C@H](C)NC(=O)[C@H](CCC(=O)O)NC(=O)[C@H](CCCCN)NC(=O)[C@H](CCC(=O)O)NC(=O)[C@H](CCSC)NC(=O)[C@H](Cc1ccc(O)cc1)NC(=O)[C@@H](NC(=O)[C@H](CO)NC(=O)[C@H](Cc1ccc(O)cc1)NC(=O)[C@H](CC(=O)O)NC(=O)[C@H](CO)NC(=O)[C@@H](NC(=O)[C@H](Cc1ccccc1)NC(=O)[C@@H](NC(=O)CNC(=O)[C@H](CCC(=O)O)NC(=O)C(C)(C)NC(=O)[C@@H](N)Cc1ccc(O)cc1)[C@@H](C)O)[C@@H](C)O)[C@@H](C)CC)C(C)C)[C@@H](C)CC)C(C)C)C(N)=O [Compound 068] | 0.169 | 566 | 0.037 | 38.9
2 | 0.837 | 131 | 1.5 | 33.3 | CC[C@H](C)[C@H](NC(=O)[C@H](Cc1ccccc1)NC(=O)[C@H](CCC(=O)O)NC(=O)[C@H](CCCCN)NC(=O)[C@H](C)NC(=O)[C@H](C)NC(=O)[C@H](CCC(N)=O)NC(=O)[C@H](CCCCN)NC(=O)[C@H](CCC(=O)O)NC(=O)[C@H](CCSC)NC(=O)[C@H](Cc1ccc(O)cc1)NC(=O)[C@@H](NC(=O)[C@H](CO)NC(=O)[C@H](Cc1ccc(O)cc1)NC(=O)[C@H](CC(=O)O)NC(=O)[C@H](CO)NC(=O)[C@@H](NC(=O)[C@H](Cc1ccccc1)NC(=O)[C@@H](NC(=O)CNC(=O)[C@H](CCC(=O)O)NC(=O)C(C)(C)NC(=O)[C@@H](N)Cc1ccc(O)cc1)[C@@H](C)O)[C@@H](C)O)[C@@H](C)CC)C(=O)N[C@@H](C)C(=O)N[C@@H](Cc1c[nH]c2ccccc12)C(=O)N[C@@H](CC(C)C)C(=O)N[C@H](C(=O)N[C@@H](CCCCN)C(=O)NCC(N)=O)C(C)C [Compounds 025] (H-Y[Aib]EGTFTSDYSIYMEKQAAKEFIAWLVKG-NH2; N-terminus assumed) |  | 131 |  | 33.3
3 |  |  |  |  | CCCCCCCCCCCCCCCC(=O)NCCCC[C@H](NC(=O)[C@H](CO)NC(=O)[C@@H]1CCCN1C(=O)[C@@H]1CCCN1C(=O)[C@@H]1CCCN1C(=O)[C@H](C)NC(=O)CNC(=O)[C@H](CO)NC(=O)[C@H](CO)NC(=O)[C@@H]1CCCN1C(=O)CNC(=O)CNC(=O)[C@@H]1CCCCNC(=O)CC[C@H](NC(=O)[C@@H](NC(=O)[C@H](Cc2ccccc2)NC(=O)[C@H](CCC(=O)O)NC(=O)[C@H](CCCCN)NC(=O)[C@@H](NC(=O)[C@H](C)NC(=O)[C@H](CCC(=O)O)NC(=O)[C@H](CCCCN)NC(=O)[C@H](CCC(=O)O)NC(=O)[C@H](CCSC)NC(=O)[C@H](Cc2ccc(O)cc2)NC(=O)[C@@H](NC(=O)[C@H](CO)NC(=O)[C@H](Cc2ccc(O)cc2)NC(=O)[C@H](CC(=O)O)NC(=O)[C@H](CO)NC(=O)[C@@H](NC(=O)[C@H](Cc2ccccc2)NC(=O)[C@@H](NC(=O)CNC(=O)[C@H](CCC(=O)O)NC(=O)C(C)(C)NC(=O)[C@@H](N)Cc2ccc(O)cc2)[C@@H](C)O)[C@@H](C)O)[C@@H](C)CC)C(C)C)[C@@H](C)CC)C(=O)N[C@@H](Cc2c[nH]c3ccccc23)C(=O)N[C@@H](CC(C)C)C(=O)N[C@@H](C(C)C)C(=O)N1)C(N)=O [Compound 102] (H-Y[Aib]EGTFTSDYSIYMEKEAVKEFIEWLVKGGPSSGAPPPSK(Palmitoyl)-NH2; lactam 24-28; N-terminus assumed) | 0.069 | 510.1 | 0.015 | 460
4 |  |  |  |  | CCCCCCCCCCCCCCCC(=O)NCCCC[C@H](NC(=O)[C@H](CO)NC(=O)[C@@H]1CCCN1C(=O)[C@@H]1CCCN1C(=O)[C@@H]1CCCN1C(=O)[C@H](C)NC(=O)CNC(=O)[C@H](CO)NC(=O)[C@H](CO)NC(=O)[C@@H]1CCCN1C(=O)CNC(=O)CNC(=O)[C@H](CCCCN)NC(=O)[C@@H](NC(=O)[C@H](CC(C)C)NC(=O)[C@H](Cc1c[nH]c2ccccc12)NC(=O)[C@H](CS)NC(=O)[C@@H](NC(=O)[C@H](Cc1ccccc1)NC(=O)[C@H](CCC(=O)O)NC(=O)[C@H](CCCNC(=N)N)NC(=O)[C@@H](NC(=O)[C@H](C)NC(=O)[C@H](CCC(=O)O)NC(=O)[C@H](CCCCN)NC(=O)[C@H](CCC(=O)O)NC(=O)[C@H](CCSC)NC(=O)[C@H](Cc1ccc(O)cc1)NC(=O)[C@@H](NC(=O)[C@H](CO)NC(=O)[C@H](Cc1ccc(O)cc1)NC(=O)[C@H](CC(=O)O)NC(=O)[C@H](CO)NC(=O)[C@@H](NC(=O)[C@H](Cc1ccccc1)NC(=O)[C@@H](NC(=O)CNC(=O)[C@H](CCC(=O)O)NC(=O)C(C)(C)NC(=O)[C@@H](N)Cc1ccc(O)cc1)[C@@H](C)O)[C@@H](C)O)[C@@H](C)CC)C(C)C)[C@@H](C)CC)C(C)C)C(N)=O [Compound 096] (H-Y[Aib]EGTFTSDYSIYMEKEAVREFICWLVKGGPSSGAPPPSK(Palmitoyl)-NH2) | 0.253 | 404.7 | 0.1 | 42
5 |  |  |  |  | CC[C@H](C)[C@H](NC(=O)[C@H](Cc1ccccc1)NC(=O)[C@H](CCC(=O)O)NC(=O)[C@H](CCCNC(=N)N)NC(=O)[C@@H](NC(=O)[C@H](C)NC(=O)[C@H](CCC(=O)O)NC(=O)[C@H](CCCCN)NC(=O)[C@H](CCC(=O)O)NC(=O)[C@H](CCSC)NC(=O)[C@H](Cc1ccc(O)cc1)NC(=O)[C@H](CCC(=O)O)NC(=O)[C@H](CO)NC(=O)[C@H](Cc1ccc(O)cc1)NC(=O)[C@H](CC(=O)O)NC(=O)[C@H](CO)NC(=O)[C@@H](NC(=O)[C@H](Cc1ccccc1)NC(=O)[C@@H](NC(=O)CNC(=O)[C@H](CCC(=O)O)NC(=O)C(C)(C)NC(=O)[C@@H](N)Cc1ccc(O)cc1)[C@@H](C)O)[C@@H](C)O)C(C)C)C(=O)N[C@@H](C)C(=O)N[C@@H](Cc1c[nH]c2ccccc12)C(=O)N[C@@H](CC(C)C)C(=O)N[C@H](C(=O)N[C@@H](CCCCN)C(=O)NCC(N)=O)C(C)C [Compound 052-1] (H-Y[Aib]EGTFTSDYSEYMEKEAVREFIAWLVKG-NH2; N-terminus assumed) | 2.5 |  | 0.57 | 36.8

From patent US9453062B2, “Glucose dependent insulinotropic polypeptide analogs, pharmaceutical compositions and use thereof” (Beijing Hanmi Pharmaceutical Co., Ltd., priority 2011, dated 2016)
